Like-named read-outs stand apart in the source and are kept apart here.
How the values were obtained:
[1] = test system: D121 lung tumor cells; type: in vivo, C57 mice; conditions: Day 18
Procedure: 1) D121 lung tumor cells were purchased from ATCC. Cells were cultivated in DMEM culture solution containing 10% fetal bovine serum at 37° C. and 5% CO2. The cells were passaged for every three days and cells within the 15th passage were used.
2) Tumor immunization. 5×10^5 D121 lung cancer cells (purchased from ATCC) which were killed by irradiation were intraperitoneally injected to mice. The mice were injected for 3 times, once every two weeks. After immunization, mice were injected with tumor cells and the drugs were administered weekly for 4 weeks.
3) Production of tumor. At day 32, 10^6 live lung tumor cells were subcutaneously injected to the back of the C57 mice immunized by tumor. Treatment began when the tumor grew to 0.3-0.4 cm.
2) Tumor immunization. 5×10^5 D121 lung cancer cells (purchased from ATCC) which were killed by irradiation were intraperitoneally injected to mice. The mice were injected for 3 times, once every two weeks. After immunization, mice were injected with tumor cells and the drugs were administered weekly for 4 weeks. In table 16 below the immune group was immuned with D121 lung tumor cells and the group without dead D121 lung tumor cells was injected with physiological saline as controls.
3) Production of tumor. After immunization (4 weeks later), 10^6 live lung tumor cells were subcutaneously injected to the back of the C57 mice immunized by tumor. Treatment began when the tumor grew to 0.3-0.4 cm. Tumor size (mm^3) were noted and tumor inhibition rates were calculated.
2) Tumor immunization. 5×10^5 D121 lung cancer cells (purchased from ATCC) which were killed by irradiation were intraperitoneally injected to mice. The mice were injected for 3 times, once every two weeks. After immunization, mice were injected with tumor cells and the drugs were administered weekly for 4 weeks. In the table below the immune group was immuned with D121 lung tumor cells and the group without dead D121 lung tumor cells was injected with physiological saline as controls.
3) Production of tumor. At day 32, 10^6 live D121 lung tumor cells were subcutaneously injected to the back of the C57 mice immunized by tumor. Treatment began when the tumor grew to 0.3-0.4 cm.
1) D121 lung tumor cells were purposed from ATCC. Cells were cultivated in DMEM culture solution containing 10% fetal bovine serum at 37° C. and 5% CO2. The cells were passaged for every three days and cells within the 15th passage were used.

[2] = test system: tumor CD8+ T cells; type: in vivo, C57 mice
Procedure: (§1) 4) Analysis on tumor CD8+ T cells. The tumor tissue was homogenated and individual cells in the tumor were filtered, separated and washed by buffer twice, then cultivated with the leucocyte common antigen CD45-PE and CD8-FITC marked antibodies for 1 hour at ambient temperature. The cells were washed by phosphate buffer containing 1% fetal bovine serum twice and then analyzed for the ratio of the T lymphocyte antigen (CD8) positive cells in the leucocyte common antigen (CD45) positive cells by flow cytometry.
as §1, with “CD45-PE and T-lymphocyte antigen CD8-FITC marked” for “CD45-PE and CD8-FITC marked”, “flow cytometry. Increasement of the ratio indicates increased T lymphocyte cells and thus the animal immunity against the tumor was improved.” for “flow cytometry.”
as §1, with “cytometry. Increasement of the ratio indicates increased T lymphocyte cells and thus the animal immunity against the tumor was improved.” for “cytometry.”

[3] = test system: Human prostate cancer PC-3 cells / Panc-1 cells; test: Tumor treatment in nude mice (PC-3 cells purchased, Panc-1 cells injected; Examples 22, 32, 42); type: in vivo; conditions: Table 38, nude mice, IV once weekly for four weeks, B1-B4 25 mg/kg, Docetaxel […]
Procedure: (§2) 1) Human prostate cancer PC-3 cells were purchased from American type culture collection (ATCC) and identified according the specification provided by ATCC. Cells were cultivated in DMEM culture solution containing 10% fetal bovine serum at 37° C. and 5% CO2. The cells were passaged for every three days and cells within the 15th passage were used.
2) Production of tumor. 5×10^6Panc-1 cells were subcutaneously injected to the back of the nude mice. Mice were randomly grouped after the tumor reached at least 100 mm^3. Then treatment began and the day on which the treatment began was day 1.
The control group was administered by physiological saline. Drugs were administered once weekly for four weeks.
According to the clinical application of B1, B2, B3 and B4, drugs were intravenously injected (IV). […] The control group was administered by physiological saline. Drugs were administered once weekly for four weeks.

[4] = test system: Human prostate cancer PC-3 cells; test: Tumor treatment in nude mice, PC-3 model (Example 51); type: in vivo; conditions: Table 48, nude mice, PC-3, IV once weekly for four weeks, D1-D4 25 mg/kg, Docetaxel […]
Procedure: as §2
2) Production of tumor. 5×10^6PC-3 cells were subcutaneously injected to the back of the nude mice. Mice were randomly grouped after the tumor reached at least 100 mm^3. Then treatment began and the day on which the treatment began was day 1.
According to the clinical application of D1, D2, D3 and D4, drugs were intravenously injected (IV). […]. The control group was administered by physiological saline. Drugs were administered once weekly for four weeks.

[5] = test system: 4T1 cells; test: BALB/C mice model for tumor metastasis (4T1, lung metastases); type: in vivo; conditions: BALB/C mice, 4T1, lung metastases day 27, IV every three days for 4 times
Procedure: 1) 4T1 cells were purchased from American type culture collection (ATCC) and identified according the specification provided by ATCC. Cells were cultivated in DMEM culture solution containing 10% fetal bovine serum at 37° C. and 5% CO2. The cells were passaged for every three days and cells within the 15th passage were used.
2) Production of tumor metastasis. 10^6 […] were subcutaneously injected to the back of the BALB/C mice. Mice were randomly grouped after the tumor grew to about 1.5 cm. The subcutaneous tumor was removed by surgery and drug treatment began. Mice were killed after anesthesia on day 27. The whole lung was taken out and put into Bouin's solution for staining. The number of the tumor metastasized to lung was counted with anatomical microscope.
(§3) The control group was administered by physiological saline. Drugs were administered once for every three days for 4 times.
as §3
According to the clinical application of B1, B2, B3 and B4, drugs were intravenously injected (IV). […] The control group was administered by physiological saline. Drugs were administered once for every three days for 4 times.
According to the clinical application of D1, D2, D3 and D4, drugs were intravenously injected (IV). […] The control group was administered by physiological saline. Drugs were administered once for every three days for 4 times.

[6] = test system: Human breast cancer MDA-MB231 cells; type: in vivo, nude mice; conditions: MDA-MB231, nude mice, IV 13.2 μmol/kg once weekly for four weeks
Procedure: 1) Human breast cancer MDA-MB231 cells were purchased from American type culture collection (ATCC) and identified according the specification provided by ATCC. Cells were cultivated in […] (DMEM culture medium) containing 10% fetal bovine serum at 37° C. and 5% CO2. The cells were passaged for every three days and cells within the 15th passage were used.
2) Production of tumor. 5×10^6 MDA-MB231 cells were subcutaneously injected to the back of the nude mice. Mice were randomly grouped after the tumor reached at least 100 mm^3. Then treatment began and the day on which the treatment began was day 1.
3) Course of treatment. […] The drugs were administered once weekly for four weeks.
When R1 is 2-(2-Methoxyethoxy)Acetyl, and R3 is Ala, activation study and efficacy study were carried out by using compounds having different cleavable linker. The study methods are identical to those in Examples 10, 11 and 12. The in vitro activation efficiency was tested by asparagine endopeptidase and the tumor inhibition rate was tested by using human breast cancer MDA-MB231 model. […]

[7] = Table 39, immunized C57 mice, D121, drugs 13.2 μmol/kg, PDL1-antibody 5 μg/kg, weekly for 4 weeks
[8] = Table 49, immunized C57 mice, D121, drugs 13.2 μmol/kg, PDL1 antibody 5 μg/kg, weekly for 4 weeks
[9] = Table 40, B1-B4 17.6 μmol/kg, Docetaxel 3 μmol/kg
[10] = Table 50, D1-D4 25 mg/kg, Docetaxel 4.2 mg/kg
[11] = D121 immunized C57 mice, 13.2 μmol/kg weekly, PDL1 antibody 5 μg/kg where combined
[12] = D121 immunized C57 mice, 13.2 μmol/kg, ratio of CD8 positive cells in CD45 positive cells of tumor

Compound | Inhibitory rate on tumor (%) Day 10 [6] | Size of tumor (mm^3) Day 10 [6] | Inhibitory rate on tumor (%) Day 24 [6] | Size of tumor (mm^3) Day 24 [6] | Inhibitory rate on tumor Day 18 [1, 11] | Size of tumor (mm^3) Day 18 [1, 11] | CD8: D45 (%) [2, 12] | also measured
Docetaxel [reference compound] | – | – | – | – | – | – | – | Size of tumor (mm^3) Day 18 [1, 7]: 1242.30 ± 359.48 mm^3; inhibitory rate on tumor % Day 18 [1, 7]: 23.33%; Size of tumor (mm^3) Day 18 [1, 8]: 1268.64 mm^3; inhibitory rate on tumor % Day 18 [1, 8]: 11.0%; CD8: CD45 (%) ([2]; Table 39, CD8 positive cells in CD45 positive cells of tumor, flow cytometry, drugs 13.2 μmol/kg, PDL1-antibody 5 μg/kg): 5.4%; CD8: CD45 (%) ([2]; Table 49, CD8 positive cells in CD45 positive cells of tumor, flow cytometry, drugs 13.2 μmol/kg, PDL1 antibody 5 μg/kg): 6.9%; Size of tumor (mm^3) Day 10 ([3]; Day 10): 254.75 ± 146.55 mm^3; inhibitory rate on tumor Day 10 ([3]; Day 10): 11.1; Size of tumor (mm^3) Day 24 ([3]; Day 24): 263.65 ± 184.67 mm^3; inhibitory rate on tumor Day 24 ([3]; Day 24): 30.7; Size of tumor (mm^3) Day 10 ([4]; Day 10): 168.66 ± 79.43 mm^3; inhibitory rate on tumor Day 10 ([4]; Day 10): 51.3; Size of tumor (mm^3) Day 24 ([4]; Day 24): 313.75 ± 157.42 mm^3; inhibitory rate on tumor Day 24 ([4]; Day 24): 57.3; Inhibitory rate on metastasis [5, 9]: 32.5; Number of metastasized tumor [5, 9]: 85 ± 17; Inhibitory rate on metastasis [5, 10]: 89.7; Number of metastasized tumor [5, 10]: 156 ± 24
CC[C@@]1(O)C(=O)OCc2c1cc1n(c2=O)Cc2cc3ccccc3nc2-1 [camptothecin] | 15% | 258.45 ± 57.43 mm^3 | 19% | 847.46 ± 157.56 mm^3 | 34.47 | 889.56 ± 148.56 mm^3 | – | CD8: CD45 (%) [2, 12]: 13.2%
CCCCCOC(=O)Nc1nc(=O)n([C@@H]2O[C@H](C)[C@@H](O)[C@H]2O)cc1F [capecitabine] | 26% | 225.53 ± 74.45 mm^3 | 9% | 946.43 ± 275.86 mm^3 | 29.75 | 953.65 ± 245.43 mm^3 | 13.6% | –
COc1cccc2c1C(=O)c1c(O)c3c(c(O)c1C2=O)C[C@@](O)(C(C)=O)C[C@@H]3O[C@H]1C[C@H](N)[C@H](O)[C@H](C)O1 [daunorubicin] | 43% | 174.78 ± 78.43 mm^3 | 17% | 864.01 ± 67.45 mm^3 | 21.63 | 1063.86 ± 317.56 mm^3 | 13.2% | –
